Laboratory results from patent publication US20170102375A1, “METHODS FOR DETERMINING THE EFFECTS OF COMPOUNDS ON JAK/STAT ACTIVITY” (Nodality, Inc., priority 2009, published 2017).
Where two headings read alike, the source gives them in different places. Values belong to the compound of their own block, whether it stands above or below them.

Legend:
p-ERK in monocytes = assay: multiparameter phosphoflow, p-ERK stimulated by GM-CSF in monocytes from PBMCs; type: cell-based; conditions: treated PBMCs, off-target ERK/MAPK (FIG. 16)
Description: (§1) (See FIG. 11; Table 7). […] The samples are gated on cell populations.
(§2) As shown in FIGS. 16-17, the methods of the invention can also be used to identify off-target effects of drug treatment. Muliparameter phosphoflow is used to detect the effects of compounds selected from the list in Table 8 on signaling pathways other than JAK/STAT. In FIG. 16, when PBMCs are treated with the JAK/STAT inhibitor Pyridone 6 (“Jak Inhibitor I,” Calbiochem), pERK levels are reduced in monocytes. […] Thus, the methods of the invention can identify both inhibition and induction of off-target signaling pathways, in this example, the ERK/MAPK pathway. The methods of the invention can also be used to identify off-target effects of JAK/STAT inhibitors on other pathways.

p-ERK in B cells = assay: multiparameter phosphoflow, p-ERK stimulated by CD40L in B-cells from PBMCs; type: cell-based; conditions: treated PBMCs, off-target ERK/MAPK (FIG. 16)
Description: as §1, §2

pAKT (S473) = assay: phosphoflow, evoked pAKT (S473) in B-cells gated from PBMC sample, IC50 from sub-sampled cells; type: cell-based; conditions: repeated 100 times, read-out: log10(IC50) (converted)
Description: In some embodiments, the invention provides tools for making robust measurements of very small subpopulations of cells. […] The IC50 for […] was calculated using pAKT measurements from 3,000 cells. […] The median fluorescence index (MFI) was then computed only from these cells and used to estimate the IC50 value. This process was repeated 100 times at each sampling level to generate a list of IC50 values. If a small number of cells is sufficiently representative of the larger population, all the IC50 values are expected to be similar to each other, and therefore the 95% confidence interval will remain small. […] For samples of 40 cells and fewer, the IC50 became increasingly inconsistent. Depending on experimental conditions, such as cell type, nodes assayed, the percentage of cells that respond to the modulator, detection methods, and the strength of the signal, the minimal number of cells needed to obtain statistically relevant measurements may vary.

pNFkB65 = assay: multiparameter phosphoflow, NFkB signaling in stimulated B cells; type: cell-based; conditions: stimulated B cells (FIG. 17)
Description: as §2

CML patients = CML patients treated at the early stages of the disease; cited from earlier work
p-STAT5 in T cells = assay: multiparameter phosphoflow, p-STAT5 in T cells gated from 90% whole blood; type: cell-based
Description: A dose series of treatments is performed for each compound, ranging from doses as low as no compound, up to doses in the ranges of 1×10° nM, 1×10^1 nM, 1×10^2 nM, 1×10^3 nM, and 1×10^4 nM. Cell signaling is measured by multiparametric phosphoflow cytometry to assess p-Stat3, pERK, and p-Stat5 levels. The samples are gated on cell populations. This method may be used, for example, to measure JAK/STAT signaling activity in gated T cells based on levels p-Stat5 (See FIG. 12). The relationship between dosing and signaling activity can be used to calculate the IC50 for each compound (See, e.g. FIG. 12).

[1] = tested on: IL-27-induced p-Stat readout; assay: IL-27-induced JAK/STAT signaling in AML patient cells, phosphoflow p-Stat1, p-Stat3, p-Stat5; type: cell-based, human
Description: (§3) Cells from three patients were stimulated with the cytokines IL-27 and G-CSF to determine whether these modulators could induce JAK/STAT pathway activation across cells from different AML patient donors. IL-27 has been reported to signal through JAK1, JAK2, and Tyk2, leading to the phosphorylation of Stat1, Stat3, and Stat5. G-CSF has been reported to signal through JAK2 and Tyk2 and leads to the phosphorylation of Stat3. […] One hour after incubation, the cells were stimulated with IL-27 and G-CSF. After stimulation cell signaling was measured by multiparametric phosphoflow cytometry to assess p-Stat1, p-Stat3 and p-Stat5 levels.
(§4) The samples were gated on cell populations. Incubation with fluorochrome-conjugated monoclonal antibodies that recognize lineage specific epitopes on the cell surface delineated at least 3 cell subpopulations in patient samples. […] Three cell subsets were examined: (1) CD34−/CD117med, (2) CD34+/CD117med, (3) CD34−/CD117−. “CD117” in FIG. 18 is the same as “ckit” in FIG. 19. “Med” indicates a medium amount of expression with respect to other cell subsets that express more or less CD117.

[2] = tested on: G-CSF-induced p-Stat readout; assay: G-CSF-induced JAK/STAT signaling in AML patient cells, phosphoflow p-Stat1, p-Stat3, p-Stat5; type: cell-based, human
Description: as §3, §4

Structure (SMILES): CC(C)(O)/C=C/C(=O)[C@](C)(O)[C@H]1[C@H](O)C[C@@]2(C)[C@@H]3CC=C4[C@@H](C=C(O)C(=O)C4(C)C)[C@]3(C)C(=O)C[C@]12C [cucurbitacin I]
- effect on pERK levels in monocytes (p-ERK in monocytes): increased
- effect on pERK levels in B cells (p-ERK in B cells): increased

- IC50 (pAKT (S473); simulation: 10 cells sampled): 4.79 nM
- IC50 (pAKT (S473); simulation: 20 cells sampled): 79.4 nM
- IC50 (pAKT (S473); simulation: 40 cells sampled): 61.7 nM
- IC50 (pAKT (S473); simulation: 80 cells sampled): 479 nM
- IC50 (pAKT (S473); simulation: 160 cells sampled): 479 nM
- IC50 (pAKT (S473); simulation: 320 cells sampled): 490 nM
- IC50 (pAKT (S473); simulation: 640 cells sampled): 490 nM
- IC50 (pAKT (S473); simulation: 1280 cells sampled): 479 nM
- IC50 (pAKT (S473); simulation: 2560 cells sampled): 490 nM
- IC50 (pAKT (S473); simulation: MFI from 5 cells sampled from 3,000 cell data set): 0.302 nM
Structure (SMILES): O=c1cc(N2CCOCC2)oc2c(-c3ccccc3)cccc12 [LY940002]

Structure (SMILES): CCOC(=O)c1cn(-c2c(F)c(F)c(C#N)c(F)c2F)c2c(F)c(F)c(F)cc2c1=O [Stat3 Inhibitor VII]
- effect on NFkB signaling, levels of pNFkB65 (pNFkB65): inhibits NFkB signaling

Structure (SMILES): Cc1ccc(NC(=O)c2ccc(CN3CCN(C)CC3)cc2)cc1Nc1nccc(-c2cccnc2)n1 [imatinib]
- complete remission, patients (CML patients): 97%

Structure (SMILES): C[C@@H]1CCN(C(=O)CC#N)C[C@@H]1N(C)c1ncnc2[nH]ccc12 [CP-690550]
- potency in whole blood (p-STAT5 in T cells; 90% whole blood gated on T cells): retains a high potency
- inhibition of IL-27-induced p-Stat readout ([1]; 333 nM, 1 h pre-incubation, cells of two AML patient donors with IL-27-induced signaling): completely
- effect in cells from the third patient ([1]; AML patient cells in which IL-27 and G-CSF induced no signaling response): no effect
- inhibition of basal phosphorylation levels in the p-Stat readout ([1]; AML patient cells, IL-27 experiment (FIG. 20)): no inhibition
- inhibition of G-CSF-induced p-Stat readout ([2]; 3333 nM, 1 h pre-incubation, cells of two AML patient donors with G-CSF-induced signaling): completely
- inhibition of basal phosphorylation levels in the p-Stat readout ([2]; AML patient cells, G-CSF experiment (FIG. 21)): no inhibition

Structure (SMILES): CC(C)(C)c1nc2c3cc[nH]c(=O)c3c3cc(F)ccc3c2[nH]1 [Pyridone 6]
- decrease of potency in whole blood versus PBMCs (p-STAT5 in T cells; 90% whole blood gated on T cells vs stimulated PBMCs): 70 fold
- effect on pERK levels in monocytes (p-ERK in monocytes): reduced
- effect on pERK levels in B cells (p-ERK in B cells): does not reduce
